The values below come from US8247610B2, “Amine linked modulators of γ-secretase” (Janssen Pharmaceutica N.V., priority 2007, dated 2012).

As usually defined, the EC50 is the concentration giving half of the maximal effect. A high value points to a less potent agent. What is called inhibition is the share of the control response that was lost under treatment. Lower therefore signals a weak effect.

The assay deals with T1, γ-secretase (Homo sapiens, UniProt P49768).
T1 construct: endogenous in cells; host or cells: SKNBE2 cells carrying APP 695 wild type
Kind of assay: Screening for γ-secretase-modulating activity in SKNBE2 cells carrying the APP 695 wild type. The class given is cell-based. To be noted: SKNBE2 cells carrying APP 695 wild type. How it is done:
Screening of the Compounds of the Invention for γ-Secretase-Modulating Activity
Screening was carried out using SKNBE2 cells carrying the APP 695—wild type, grown in DMEM/NUT-mix F12 (HAM) provided by Gibco (cat no. 31330-38) containing 5% Serum/Fe supplemented with 1% non-essential amino acids.
Cells were grown to near confluency.
The screening was performed using the assay as described in Citron et al (1997) Nature Medicine 3: 67.

For “2-(5-(2,4-difluorobenzylamino)-4′-(trifluoromethyl)biphenyl-3-yl)-4-methyl pentanoic acid [Compound 52]”, the “inhibition @ 0.3 μM” value (0.3 μM) came to 0% inhi- bition @ 0.3 μM.

Regarding `CC(C)CC(C(=O)O)c1cc(-c2ccc(C(F)(F)F)cc2)cc(N(C)c2ccc(Cl)cc2)c1` (single isomer, unassigned) [Example 21, (R*)2-{5-[(4-Chloro-phenyl)-methyl-amino]-4′-trifluoromethyl-biphenyl-3-yl}-4-methyl-pentanoic acid], the EC50 was found to be 1.13 µM.

As to `CC(C)CC(C(=O)O)c1cc(-c2ccc(C(F)(F)F)cc2)cc(N(C)c2ccc(Cl)cc2)c1` (single isomer, unassigned) [Example 22, (S*)2-{5-[(4-Chloro-phenyl)-methyl-amino]-4′-trifluoromethyl-biphenyl-3-yl}-4-methyl-pentanoic acid], a half-maximal response (EC50) required 2.15 µM.

`CC(C)CCN(Cc1cc(-c2ccc(C(F)(F)F)cc2)cc([C@@H](CC(C)C)C(=O)O)c1)Cc1ccc(F)c(F)c1` (stereo in doubt) [Example 5, 2-(5-{[(3,4-Difluoro-benzyl)-(3-methyl-butyl)-amino]-methyl}-4′-trifluoromethyl-biphenyl-3-yl)-4-methyl-pentanoic acid]: a half-maximal effect (EC50) was put at 0.065 µM.

Compound `CC(C)CC(C(=O)O)c1cc(-c2ccc(C(F)(F)F)cc2)cc(N2CCCc3ccc(C(F)(F)F)cc32)c1` (centres unmarked) [Compound 26, 4-Methyl-2-[4′-trifluoromethyl-5-(7-trifluoromethyl-3,4-dihydro-2H-quinolin-1-yl)-biphenyl-3-yl]-pentanoic acid] registered an EC50 of 0.36 µM.

Compound `CC(C)CC(C(=O)O)c1cc(-c2ccc(Cl)c(C(F)(F)F)c2)cc(N(C)c2cc(C(F)(F)F)cc(C(F)(F)F)c2)c1` (centres unmarked) [Compound 27, 2-[4′-Chloro-5-(N-[3,5-bis-(trifluoromethyl)phenyl]-N-methylamino)-3′-trifluoromethyl-biphenyl-3-yl]-4-methyl-pentanoic acid] registered an EC50 of 0.48 µM.

`CC(C)CC(C(=O)O)c1cc(-c2ccc(C(F)(F)F)cc2)cc(N2CCCc3ccccc32)c1` (centres unmarked) [Compound 28, 2-[5-(3,4-Dihydro-2H-quinolin-1-yl)-4′-trifluoromethyl-biphenyl-3-yl]-4-methyl-pentanoic acid] showed an inhibition at 0.3 µM (0.3 μM) of 0%.

With `CC(C)CCC(Nc1cc(-c2ccc(C(F)(F)F)cc2)cc(C(CC(C)C)C(=O)O)c1)c1cc(F)cc(F)c1` (centres unmarked) [Compound 29, 2-{5-[1-(3,5-Difluoro-phenyl)-4-methyl-pentylamino]-4′-trifluoromethyl-biphenyl-3-yl}-4-methyl-pentanoic acid], a half-maximal response (EC50) required 0.3 µM.

The compound `CC(C)CCC(Nc1cc(-c2ccc(C(F)(F)F)cc2)cc(C(CC(C)C)C(=O)O)c1)c1cc(C(F)(F)F)cc(C(F)(F)F)c1` (centres unmarked) [Compound 30, 2-{5-[1-(3,5-Bis-trifluoromethyl-phenyl)-4-methyl-pentylamino]-4′-trifluoromethyl-biphenyl-3-yl}-4-methyl-pentanoic acid] gave an EC50 of 0.22 µM.

On to `CC(C)CCC(Nc1cc(-c2ccc(C(F)(F)F)cc2)cc(C(CC(C)C)C(=O)O)c1)c1ccc(C(F)(F)F)cc1` (centres unmarked) [Compound 31, 4-Methyl-2-{5-[4-methyl-1-(4-trifluoromethyl-phenyl)-pentylamino]-4′-trifluoromethyl-biphenyl-3-yl}-pentanoic acid], for which the midpoint of the response, the EC50, lay at 0.27 µM.

Where the note is “0.3 μM”, `CC(C)CCC(Nc1cc(CC(=O)O)cc(-c2ccc(C(F)(F)F)cc2)c1)c1ccc(C(F)(F)F)cc1` (centres unmarked) [Compound 32] gave an inhibition at 0.3 µM of 25%.

Compound `CC(C)CCC(Nc1cc(CC(=O)O)cc(-c2ccc(C(F)(F)F)cc2)c1)c1cc(F)cc(F)c1` (centres unmarked) [Compound 33] registered an inhibition at 0.3 µM (0.3 μM) of 11%.

Consider `CC(C)CC(C(=O)O)c1cc(NC2CCCc3ccccc32)cc(-c2ccc(C(F)(F)F)cc2)c1` (centres unmarked) [Compound 34, 4-Methyl-2-[5-(1,2,3,4-tetrahydro-naphthalen-1-ylamino)-4′-trifluoromethyl-biphenyl-3-yl]-pentanoic acid], for which the inhibition at 0.3 µM (0.3 μM) worked out at 22%.

Take `CC(C)CC(C(=O)O)c1cc(NCc2ccc(C(C)(C)C)cc2)cc(-c2ccc(C(F)(F)F)cc2)c1` (centres unmarked) [Compound 37, 2-[5-(4-tert-Butyl-benzylamino)-4′-trifluoromethyl-biphenyl-3-yl]-4-methyl-pentanoic acid]: where the note is “0.3 μM”, the inhibition at 0.3 µM is 18%.

The compound `CC(C)CCC(Nc1cc(-c2ccc(C(F)(F)F)cc2)cc(C(CC(C)C)C(=O)O)c1)c1cc(F)c(F)c(F)c1` (centres unmarked) [Compound 38, 4-Methyl-2-{5-[4-methyl-1-(3,4,5-trifluoro-phenyl)-pentylamino]-4′-trifluoromethyl-biphenyl-3-yl}-pentanoic acid] had an EC50 of 0.23 µM.

`CC(C)CCN(Cc1ccc(C(C)(C)C)cc1)c1cc(-c2ccc(C(F)(F)F)cc2)cc(C(CC(C)C)C(=O)O)c1` (centres unmarked) [Compound 39, 2-{5-[(4-tert-Butyl-benzyl)-(3-methyl-butyl)-amino]-4′-trifluoromethyl-biphenyl-3-yl}-4-methyl-pentanoic acid]: the EC50 was 0.58 µM.

Turning to `CC(C)CCN(Cc1cc(F)cc(F)c1)c1cc(-c2ccc(C(F)(F)F)cc2)cc([C@@H](CC(C)C)C(=O)O)c1` [Compound 40, 2-{5-[(3,5-Difluoro-benzyl)-(3-methyl-butyl)-amino]-4′-trifluoromethyl-biphenyl-3-yl}-4-methyl-pentanoic acid], the EC50 is 0.19 µM.

Consider `CC(C)C[C@@H](C(=O)O)c1cc(NCc2ccc(OC(F)(F)F)cc2)cc(-c2ccc(C(F)(F)F)cc2)c1` [Compound 41, 4-Methyl-2-[5-(4-trifluoromethoxy-benzylamino)-4′-trifluoromethyl-biphenyl-3-yl]-pentanoic acid], for which the inhibition at 0.3 µM (0.3 μM) stood at 0%.

With `CC(C)CCN(Cc1ccc(OC(F)(F)F)cc1)c1cc(-c2ccc(C(F)(F)F)cc2)cc([C@@H](CC(C)C)C(=O)O)c1` [Compound 42, (R) 4-Methyl-2-{5-[(3-methyl-butyl)-(4-trifluoromethoxy-benzyl)-amino]-4′-trifluoromethyl-biphenyl-3-yl}-pentanoic acid], the EC50 is 0.64 µM.

Consider `CC(C)C[C@@H](C(=O)O)c1cc(NCc2cc(F)cc(F)c2)cc(-c2ccc(C(F)(F)F)cc2)c1` [Compound 43, (R) 2-[5-(3,5-Difluoro-benzylamino)-4′-trifluoromethyl-biphenyl-3-yl]-4-methyl-pentanoic acid], for which, under “0.3 μM”, the inhibition at 0.3 µM was 0%.

`CC(C)C[C@@H](C(=O)O)c1cc(NCc2ccc(C(F)(F)F)cc2)cc(-c2ccc(C(F)(F)F)cc2)c1` [Compound 44, (R) 4-Methyl-2-[4′-trifluoromethyl-5-(4-trifluoromethyl-benzylamino)-biphenyl-3-yl]-pentanoic acid] registered an inhibition at 0.3 µM (0.3 μM) of 7%.

Compound `CC(C)CCN(Cc1ccc(C(F)(F)F)cc1)c1cc(-c2ccc(C(F)(F)F)cc2)cc(C(CC(C)C)C(=O)O)c1` (centres unmarked) [Compound 45, 4-Methyl-2-{5-[(3-methyl-butyl)-(4-trifluoromethyl-benzyl)-amino]-4′-trifluoromethyl-biphenyl-3-yl}-pentanoic acid] gave an EC50 of 0.58 µM.

As to `CC(C)C[C@@H](C(=O)O)c1cc(NCc2cc(C(F)(F)F)cc(C(F)(F)F)c2)cc(-c2ccc(C(F)(F)F)cc2)c1` [Compound 46, (R) 2-[5-(3,5-Bis-trifluoromethyl-benzylamino)-4′-trifluoromethyl-biphenyl-3-yl]-4-methyl-pentanoic acid], for the setting “0.3 μM”, the inhibition at 0.3 µM was 6%.
